Assay [1] deals with bone resorption of osteoclast. Nature of the assay: Measurement of bone resorption, pit formation assay on ivory fragment (Example 3). The settings on record: 24 hrs; for inhibition at 0.016 µM / inhibition at 0.08 µM / inhibition at 0.4 µM / inhibition at 2 µM / inhibition at 10 µM / IC50: Mus musculus, Osteoclast; for inhibition at 0.016 µM / inhibition at 0.08 µM / inhibition at 0.4 µM / inhibition at 2 µM / inhibition at 10 µM: read-out: Inhibitory action (%). In kind it is cell-based, mice. How it is done: The mature osteoclast (OCL) is mainly involved in removing mineral by bone resorption. This experiment is designed to measure the inhibitory effects of each test substance on the bone resorption of osteoclast using ivory fragment (Eijiro Jimi et al. Endocrinology 137, p 2187-2190, 1996).
The co-culture system for both bone marrow cells and osteoblast was performed using a cultivation dish containing collagen gel (cell matrix Type I-A). Collagen, 5-fold concentrated α-MEM medium and 0.05M NaOH buffer solution (2.2% NaHCO3, pH7.4) were mixed at the ratio of 7:2:1 at a low temperature, and then storage at a low temperature. Then, 4 mL of the mixed solution was added to a 100 mm culture dish, applied evenly and left at 37° C. for 5 minutes.
Using α-MEM medium, the mixture of both bone marrow cells (about 1×10^7 cells/plate) and osteoblast (about 5×10^5 cells/plate), so separated from Example 1, were plated on a 100 mm dish containing collagen gel. The co-culture was performed in the presence of differentiation factors such as vitamin D (10^−9M) and dexamethasone (10^−6M). As described above, a great number of mature multinucleated osteoclasts with the ability of bone resorption were obtained via a 7-day co-culture. The medium was removed from the cells and with the addition of 0.2% collagenase solution, the attachment cells were separated by incubation for 20 minutes. The cells were collected via centrifuge. The harvested crude osteoclasts were again diluted in α-MEM medium to make the cells of 5,000 cells/100 ul.
Hematoxylin staining solution was prepared in a manner such that hematoxylin (1 g) was dissolved in 500 ml of distilled water and was added to 500 ml of distilled water and […] (0.2 g). The reaction mixture was stirred for 15 mins. Ammonium alum (50 g) and 7.5 ml of acetic acid were further added to the reaction mixture and filtered off.
After the ivory fragments, cut to a thickness of 1 mm, were sterilized, each fragment was placed into a 96 well plate, and 100 ul α-MEM medium (10% FBS) was added. To measure its inhibitory effect against the pit formation of osteoclast, each test substance was added in a maximum amount of 3 ul per concentration.
With the addition of test substances, 100 ul of osteoclast solution was further added, mixed vigorously and cultured using a 5% CO2 incubator at 37° C. for 24 hrs. To observe the pits formed on the ivory fragments, the portion of grown osteoclast was directed upward and placed on a paper towel after removing from the 96 well plate. With the removal of cells on the ivory, 10 ul of hematoxylin solution was dropped on the ivory to perform the staining for about 5 minutes. The surface of the ivory fragments was rubbed with a soft cotton pole to completely remove the staining solution.

In assay [2] the test system is osteoclast differentiation. Nature of the assay: Inhibitory effects on osteoclast differentiation, co-culture of bone marrow cells and osteoblast, TRAP staining (Example 1). In kind it is cell-based, mice. The following applies: 7-day co-culture; for inhibition at 0.0032 µM / inhibition at 0.016 µM / inhibition at 0.08 µM / inhibition at 0.4 µM / IC50: Mus musculus, Osteoclast, 168 h; for inhibition at 0.0032 µM / inhibition at 0.016 µM / inhibition at 0.08 µM / inhibition at 0.4 µM: read-out: % inhibitory action. The method, then: The effects of each test substance on osteoclast proliferation and differentiation process were evaluated via co-culture with osteoblast.
Tibia and Femora were aseptically ectomized from male ddY mice of 6-8 weeks to harvest bone marrow cells by using a syringe (21 G, Korea Green Cross).
The bone marrow cells were suspended in 5 mL α-MEM medium (Gibco BRL Co.) containing sodium bicarbonate (2.0 g/L), streptomycin (100 mg/L) and penicillin ([…]). The harvested cells were centrifuged at 800×g for 5 minutes to collect the whole quantity. To remove the red blood cells within bone marrow cells, 3 mL of Tris HCl (0.83% NH4Cl, pH7.5) was added and well mixed. After centrifuging the above cells, the numbers of bone marrow cells were counted and then the bone marrow cells were immediately used for a co-culture system with osteoblast.
The calvaria were aseptically ectomized from neonate ICR mice of 1-2 days, washed with PBS solution and incubated with a mixture of enzyme solutions (0.2% collagenase and 0.1% dispase) at 37° C. gentle shaker. This procedure was sequentially repeated (10, 10, 10, 20, 20 and 20 minutes), and then the calvaria cells having the characteristics of osteoblast, were mostly released from III˜VI digestion groups, were collected and washed with the medium (serum-free α-MEM). The washed cells were cultivated in α-MEM medium containing 10% FBS for 2-3 days. After subculturing, these cells were used for this experiment, and diluted to reach the concentration of 1×10^6 cells/mL for storage at −70° C.
The volume of final specimen added to the medium was determined at the ratio of 1:1000.
Bone marrow cells, so prepared from the above No. 1, and osteoblast from calvaria were co-cultured for osteoclast differentiation. Both bone marrow cells (25,000 cells/cm^2) and osteoblast (10,000 cells/cm^2) were plated on a 96 well plate in α-MEM medium containing 10% FBS with the specimen, and then the reaction mixture was cultured for 7 days. Some differentiation factors, such as dexamethasone (10^−6M) and vitamin D3(10^−9M), were also continuously added to the medium from the first day of cultivation. The media were changed with fresh media containing a mixture of specimens and differentiation factors every 2-3 day.
TRAP was used as a marker to measure osteoclast in consideration of its characteristics showing a positive reaction to TRAP staining solution. TRAP staining solution was prepared in a manner such that 5 mg of naphtol AS-MS phosphate (sigma N-4875), a substrate and 25 mg of coloring agent (Fast Red Violet LB salt) were dissolved in N,N-dimethylformamide (about 0.5 mL) and with the addition of 0.1N NaHCO3 buffer solution (50 mL) containing 50 mM of tartaric acid. The reaction mixture was stored in a refrigerator prior to use.
After a 7-day culture, the medium was removed from the wells and then the cells were washed once with PBS solution and fixed to PBS containing 10% formalin for 2-5 minutes. The cells were also fixed in a mixed solution, ethanol and acetone (1/1), for about 1 minute, and dried off. The cells were further treated by TRAP staining solution for 15 minutes and washed with PBS to measure the experimental results with the staining degree of cells under a microscopic examination.
The counts of osteoclast only with more than 3 nuclei showing the TRAP-positive reaction were calculated under a microscopic examination, and each test was reconfirmed over three times to insure more reliable data.
As shown in the following table 1, the inhibitory effect of each experimental group on the differentiation of osteoclast versus controls were expressed by inhibitory percentage value, and 50% inhibitory concentration on osteoclast differentiation was calculated as IC50.

Experimental findings from patent US8242152B2, “Use of 4-[(4-thiazolyl)phenoxy]alkoxy-benzamidine derivatives for the prophylaxis and treatment of osteoporosis” (Dong Wha Pharmaceutical Co., Ltd., priority 2001, dated 2012) are described below.

With “4-[5-[4-(aminoiminomethyl)phenoxy]pentoxy]-3-methoxy-N,N-bis(1-methylethyl)benzamide maleic acid [CGS-25019C]”, the “Inhibitory action (%)” value in assay [1] (0.016 μM) is 0%; in assay [1] (0.08 μM), 0%; in assay [1] (0.4 μM), 2%; in assay [1] (2 μM), 9.2%; in assay [1] (10 μM) it was 17.3%. In addition, the “% inhibitory action” value in assay [2] (3.2 nM) was −8.9%; in assay [2] (16 nM), 8.3%; in assay [2] (80 nM), 0.0%; in assay [2] (400 nM), 17.7%.
As to `Cc1nc(-c2ccc(OCCCCCOc3ccc(C(=N)NO)cc3)cc2)c(C(C)C)s1` [DW1350, N-hydroxy-4-{5-[4-(5-isopropyl-2-methyl-1,3-thiazol-4-yl)phenoxy]pentoxy}-benzamidine], the inhibition at 0.016 µM in assay [1] (0.016 μM) worked out at 32.2%; in assay [2] (16 nM), 68.8%. The inhibition at 0.08 µM turned out to be 53.9% in assay [1] (0.08 μM) and 82.3% in assay [2] (80 nM). Besides, the values for the inhibition at 0.4 µM in assay [1] (0.4 μM) and in assay [2] (400 nM) were 65.2% and 88%, respectively. The inhibition at 2 µM in assay [1] (2 μM) is 84.3%. In addition, the inhibition at 10 µM in assay [1] (10 μM) is 91.3%. Also, the IC50 (in general, the concentration that gives 50% inhibition) amounted to 75 nM in assay [1] and 19.9 nM in assay [2]. Further, the inhibition at 0.0032 µM in assay [2] (3.2 nM) was 1%.
As for `Cc1nc(-c2ccc(OCCCCCOc3ccc(C(=N)N)cc3)cc2)c(C(C)C)s1` [DW1352, 4-{5-[4-(5-isopropyl-2-methyl-1,3-thiazol-4-yl)phenoxy]pentoxy}-benzamidine], the inhibition at 0.016 µM in assay [1] (0.016 μM) is 25%; in assay [2] (16 nM), 81.8%. Besides, the inhibition at 0.08 µM in assay [1] (0.08 μM) turned out to be 48.7%; in assay [2] (80 nM) it was 83.9%. Further, the inhibition at 0.4 µM in assay [1] (0.4 μM) is 61.3%; in assay [2] (400 nM) it was 92.7%. Besides, in assay [1] (2 μM), the inhibition at 2 µM was 81.7%. Moreover, the inhibition at 10 µM in assay [1] (10 μM) came to 90%. Further, the IC50 in assay [1] was 131 nM; in assay [2], 1.25 nM. Also, the inhibition at 0.0032 µM in assay [2] (3.2 nM) was found to be 50%.
As for `COc1cc(C(=O)N(C(C)C)C(C)C)ccc1OCCCCOc1ccc2c(N)noc2c1` [HS1141, N,N-diisopropyl-4-[4-(3-aminobenzo[d]isooxazole-6-yloxy)butoxy]-3-methoxybenzamide], the inhibition at 0.016 µM amounted to 9% in assay [1] (0.016 μM) and 3% in assay [2] (16 nM). Further, the inhibition at 0.08 µM in assay [1] (0.08 μM) is 33%; in assay [2] (80 nM), 12%. In addition, the inhibition at 0.4 µM in assay [1] (0.4 μM) worked out at 50.4%; in assay [2] (400 nM), 23.5%. Moreover, the inhibition at 2 µM in assay [1] (2 μM) worked out at 75.3%. For the same compound, the inhibition at 10 µM in assay [1] (10 μM) turned out to be 88.7%. This compound had a half-maximal inhibitory concentration (IC50) in assay [1] of 421 nM. Besides, the inhibition at 0.0032 µM in assay [2] (3.2 nM) was found to be 1.2%.
